Measurements as given in US20050181076A1, “Compositions and methods for treatment of diabetes” (priority 1999, published 2005).
Values belong to the molecule of their own block, whether it stands above or below them.

Tests used:
diabetics = test: Brickellia flavonoids administered to diabetics; type: in vivo; conditions: for results in diabetics compared with the extract: flavonoids extracted and fractionated from Brickellia californica; for effectiveness in treating diabetes: alone or in combination
Source text: The flavonoids specifically used were dihydrokaemferol and apigenin, a flavone. […] I have discovered an underlying “molecular switch” that controls both forms of diabetes. This “switch” can be operated by luteolin and similar flavonoids.

[1] = target: Kv1.3 voltage gated potassium channel (Homo sapiens, UniProt P22001); test: patch clamp analysis of Kv1.3 block; type: cell-based
Sequence of Kv1.3 voltage gated potassium channel (P22001 whole entry): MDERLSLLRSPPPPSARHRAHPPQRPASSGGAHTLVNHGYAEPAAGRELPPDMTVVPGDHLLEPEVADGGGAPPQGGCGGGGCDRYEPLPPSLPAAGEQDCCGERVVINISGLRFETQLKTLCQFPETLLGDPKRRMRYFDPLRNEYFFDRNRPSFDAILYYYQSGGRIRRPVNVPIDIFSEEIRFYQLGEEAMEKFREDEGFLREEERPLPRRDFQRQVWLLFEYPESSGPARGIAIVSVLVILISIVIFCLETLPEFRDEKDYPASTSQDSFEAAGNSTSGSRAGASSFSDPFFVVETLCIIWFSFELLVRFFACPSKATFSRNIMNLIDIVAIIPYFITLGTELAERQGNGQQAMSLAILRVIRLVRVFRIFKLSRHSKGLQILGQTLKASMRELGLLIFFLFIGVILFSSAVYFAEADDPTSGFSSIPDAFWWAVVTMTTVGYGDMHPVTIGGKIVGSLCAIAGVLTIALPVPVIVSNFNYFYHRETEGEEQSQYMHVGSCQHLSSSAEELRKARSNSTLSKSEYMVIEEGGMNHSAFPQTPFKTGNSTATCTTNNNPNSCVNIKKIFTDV
Source text: When the toxic CD8^− Natural Killer Cells combines with the CD4^− Helper T Cells at cystein they electronically stimulate calmodulin. This voltage sensor activates one of the 80+ super gene channels necessary for the activation of the CD4^− and CD8^− T Cells, Kv1.3 a voltage gated potassium channel. If this channel is not activated by calmodulin the T-Cells remain in their resting states. […] There are 200 pores in a resting Beta cell. When cell potential reaches 1.3 nVolts, the Kv1.3, voltage gated potassium channel opens to expose the tyrosine kinase tails. These kinases when stimulated turn on the ras-Oncogene, a cancer promoter, which turns on Protein Kinase C, another tumor promoter. These drive the Nuclear Factors of the Activated T-Cell, such as cAMP; which stimulates the susceptibility genes associated with diabetes such as those on chromosome 19q13.3. These in turn produce InterLeukin-2, an inflammatory cytokine messenger signaling further T-Cell proliferation. When CD8^− cells sample the external receptors of the Beta cell, they find and bind to laminin to sites, such as AGM1, and releases InterLeukin-2 upon calcium loading. This inflammatory cytokine causes cell activation and suppression of insulin release. […]

[2] = test system: Type 1 (BB/Wor) diabetic rats; test: single luteolin treatment in chronic Type I diabetic rats, blood glucose 0-6 hours; type: in vivo, rat; conditions: for average blood glucose at 6 hours: from 415 (insulin) and 445 (luteolin) mg/dl at time 0; for decrease in blood glucose levels: within 6 hours, luteolin 3 mg intragastrically, PZI insulin 0.9-1.2 mU/day subcutaneous
Procedure: Animal tests of luteolin were made at BRM (Biomedical Research Models, Inc.) an East coast contract research organization (CRO) that specializes in diabetes research. […] Historically, these strains have been widely used in similar pre-clinical studies to predict anti-diabetogenic efficacy. […] In this study, lean male diabetics were randomly assigned to 3 treatment groups (3-4 rats/group). […] Blood glucose was evaluated from time 0 through 6 hours (11 AM-5 PM). […] This response was fully consistent with prior work in the Type I rat model. […] In comparison, there was no reduction in the hyperglycemic state in the control group over the same interval (414 to 404 mg/dl).

[3] = test system: Type II (BBZDR/Wor) diabetic rats; test: luteolin dose study in chronic Type 2 diabetic rats over 24 hr; type: in vivo, rat
Procedure: Animal tests of luteolin were made at BRM (Biomedical Research Models, Inc.) an East coast contract research organization (CRO) that specializes in diabetes research. […] Historically, these strains have been widely used in similar pre-clinical studies to predict anti-diabetogenic efficacy.
First, a 24 hour baseline study was performed on 9 chronic Type 2 rats. We found no significant change in hyperglycemia over this 24 hour period of analysis in the diabetic rats. […] Blood glucose analysis was evaluated every 2 hours.
Unfortunately, that animal died sometime before the 24 hr time point as a result of an accidental perforation of the esophagus during the administration of drug.

[4] = test system: Type II (BBZDR/Wor) diabetic rats; test: extended (two weeks) luteolin treatment of obese Type II diabetic rats; type: in vivo, rat
Source text: In the next experiment we elected to provide these same rats with a standardized dose over an extended period of treatment. […] The data were expressed for each rat as a percentage change in blood glucose level relative to each individual pre-treatment level.

[5] = test system: diabetic test animals (rats and mice); test: Brickellia extract and flavonoids in diabetic test animals; type: in vivo
Procedure: It is believed that the Brickellia californica extract includes the flavonoids dihydrokaemferol, apigenin, luteolin, myricetin and quercetin. Further, the many other species of Brickellia contain these, or similar flavonoids, albeit in different proportions, and should also be effective in treatment of diabetes. Experiments with diabetic test animals (rats and mice) were carried out. […] Further, the administration of synthetic versions of the Brickellia flavonoids were also effective at lowering glucose levels.

Molecule: O=c1cc(-c2ccc(O)cc2)oc2cc(O)cc(O)c12 [apigenin]
results in diabetics compared with the extract (diabetics): results similar to those produced by the extract

Molecule: O=c1c(O)c(-c2cc(O)c(O)c(O)c2)oc2cc(O)cc(O)c12 [myricetin]
effectiveness in treating diabetes (diabetics): effective in treating diabetes

block of Kv1.3 channel at 100 nM ([1]; luteolin tested at 100 nM, cell remained in its resting state): blocked completely
block of Kv1.3 channel ([1]; patch clamp analysis): blocks this channel
Molecule: O=c1cc(-c2ccc(O)c(O)c2)oc2cc(O)cc(O)c12 [luteolin]
average blood glucose at 6 hours [2]: 307 mg/dL
decrease in blood glucose levels [2]: 31%
decrease in blood glucose levels, 50 mg three times a day ([3]; Type 2 diabetic rats, 150 mg total, within 24 hr): 10.2%
drop in blood glucose, 150 mg three times a day ([3]; Type 2 diabetic rats, 450 mg total, 24 hr): 22.9%
decrease in glucose, 250 mg three times a day ([3]; Type 2 diabetic rats, 750 mg total, 24 hr): 27.7%
reduction of hyperglycemia over all doses ([3]; Type II diabetic rats, over a 24 hour period, dose-dependent): 10-28%
reduction of blood glucose in one rat ([3]; one Type 2 rat, intermediate dose (150 mg), within 18 hr): 52%
blood glucose of one rat after treatment ([3]; one Type 2 rat, intermediate dose, from 777 mg/dl, within 18 hr): 372 mg/dL
average drop of blood glucose levels ([4]; Type II rats, 50 mg 3x/day for two weeks): 41.1%
average blood glucose after treatment ([4]; Type II rats, 50 mg 3x/day for two weeks, from 660 mg/dl): 389 mg/dL
increase in blood glucose in one rat ([4]; one rat with esophageal fistula that likely prohibited effective dosing, 50 mg 3x/day two weeks): 9.3%
rank among treatments involving a single flavonoid [5]: the most effective agent
effectiveness in treating diabetes (diabetics): effective in treating diabetes

Molecule: O=C1c2c(O)cc(O)cc2O[C@H](c2ccc(O)cc2)[C@H]1O [dihydrokaemferol]
results in diabetics compared with the extract (diabetics): results similar to those produced by the extract

Molecule: insulin [reference compound]
average blood glucose at 6 hours [2]: 112 mg/dL
decrease in blood glucose levels [2]: 75%
